US20150105252A1, “SUBSTITUTED PYRAZOLES AS HERBICIDES” (E I DU PONT DE NEMOURS AND COMPANY, priority 2013, published 2015)

How the values were obtained:
velvetleaf = assay: Test A preemergence; assay type: in vivo, Abutilon theophrasti; conditions: preemergence; for Velvetleaf plant response rating (0 to 100 scale): 125 g ai/ha, visual injury approx. 10 days after treatment; for Velvetleaf plant response rating: 500 g ai/ha, visual injury after approx. 10 days, 0 to 100 scale (0 no effect, 100 complete control)
In short: (§1)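 Ratings express plant response from 0 (no effect) to 100 (complete control), judged visually against untreated controls after approximately 10 days in the greenhouse. Preemergence applications were made as directed soil sprays onto seeded loam–sand mix, and postemergence applications onto 2–10 cm plants at one- to two-leaf stage.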

wheat [1] = assay: Test C preemergence; assay type: in vivo, Triticum aestivum; conditions: preemergence; for Plant response rating, Wheat: 125 g ai/ha, scale 0 to 100, 0 = no effect, 100 = complete control
In short: (§2)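 Visual control ratings on a 0–100 scale (100 = complete control) made against untreated controls after 13 to 15 days in greenhouse. Compounds applied in surfactant-containing solvent mixture, either preemergence to loam/sand-sown seeds or postemergence to 1- to 4-leaf plants (2–18 cm) in peat medium.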

oilseed rape = assay: Test C preemergence; assay type: in vivo, Brassica napus; conditions: preemergence; for Plant response rating, Oilseed Rape: 125 g ai/ha, scale 0 to 100, 0 = no effect, 100 = complete control
In short: as §2

corn [2] = assay: Test A preemergence; assay type: in vivo, Zea mays; conditions: preemergence; for Corn plant response rating (0 to 100 scale): 125 g ai/ha, visual injury approx. 10 days after treatment; for Corn plant response rating: 500 g ai/ha, visual injury after approx. 10 days, 0 to 100 scale (0 no effect, 100 complete control)
In short: as §1

corn [3] = assay: Test C preemergence; assay type: in vivo, Zea mays; conditions: preemergence; for Plant response rating, Corn: 125 g ai/ha, scale 0 to 100, 0 = no effect, 100 = complete control
In short: as §2

ducksalad = assay: Test B flood; assay type: in vivo, Heteranthera limosa; conditions: 250 g ai/ha, visual rating on 0 to 100 scale (0 no effect, 100 complete control), 13 to 15 days
In short: (§3)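 Visual ratings (0 = no effect, 100 = complete control) versus untreated controls were taken 13–15 days after treatment of greenhouse plants. Treatment was added to paddy water held at 3 cm depth on 2-leaf-stage seedlings.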

sedge, umbrella = assay: Test B flood; assay type: in vivo, Cyperus difformis; conditions: 250 g ai/ha, visual rating on 0 to 100 scale (0 no effect, 100 complete control), 13 to 15 days
In short: as §3

foxtail, giant [4] = assay: Test A preemergence; assay type: in vivo, Setaria faberii; conditions: preemergence; for Foxtail, Giant plant response rating (0 to 100 scale): 125 g ai/ha, visual injury approx. 10 days after treatment; for Foxtail, Giant plant response rating: 500 g ai/ha, visual injury after approx. 10 days, 0 to 100 scale (0 no effect, 100 complete control)
In short: as §1

foxtail, giant [5] = assay: Test C preemergence; assay type: in vivo, Setaria faberii; conditions: preemergence; for Plant response rating, Foxtail, Giant: 125 g ai/ha, scale 0 to 100, 0 = no effect, 100 = complete control
In short: as §2

morningglory = assay: Test A preemergence; assay type: in vivo, Ipomoea spp.; conditions: preemergence; for Morningglory plant response rating (0 to 100 scale): 125 g ai/ha, visual injury approx. 10 days after treatment; for Morningglory plant response rating: 500 g ai/ha, visual injury after approx. 10 days, 0 to 100 scale (0 no effect, 100 complete control)
In short: as §1

wheat [6] = assay: Test A postemergence; assay type: in vivo, Triticum aestivum; conditions: Postemergence
In short: as §1

nutsedge, yellow = assay: Test C preemergence; assay type: in vivo, Cyperus esculentus; conditions: preemergence; for Plant response rating, Nutsedge, Yellow: 125 g ai/ha, scale 0 to 100, 0 = no effect, 100 = complete control
In short: as §2

crabgrass, large = assay: Test A postemergence; assay type: in vivo, Digitaria sanguinalis
In short: as §1

pigweed = assay: Test A postemergence; assay type: in vivo, Amaranthus retroflexus; conditions: Postemergence
In short: as §1

galium = assay: Test C preemergence; assay type: in vivo, Galium aparine; conditions: preemergence; for Plant response rating, Galium: 125 g ai/ha, scale 0 to 100, 0 = no effect, 100 = complete control
In short: as §2

[7] = 31 g ai/ha, visual rating, scale 0 to 100 (0 no effect, 100 complete control), 13 to 15 days
[8] = 62 g ai/ha, scale 0 to 100 (0 no effect, 100 complete control), 13 to 15 days
[9] = 250 g ai/ha, scale 0 to 100, 0 is no effect, 100 is complete control
[10] = 125 g ai/ha, 0 to 100 scale, 0 no effect, 100 complete control
[11] = 500 g ai/ha, 0 to 100 scale (0 no effect, 100 complete control)
[12] = Postemergence, 500 g ai/ha, 0 to 100 scale (0 no effect, 100 complete control)
[13] = postemergence, 125 g ai/ha, about 10 days, visual rating on 0 to 100 scale (0 no effect, 100 complete control)

SMILES | Velvetleaf plant response rating (0 to 100 scale) (velvetleaf) | Velvetleaf plant response rating (velvetleaf) | Wheat plant response rating (wheat [1]; [7]) | Wheat plant response rating (wheat [1]; [8]) | Plant response rating, Wheat (wheat [1]; 13 to 15 days) | Wheat plant response rating (wheat [1]; [9]) | Oilseed Rape plant response rating (oilseed rape; [7]) | Oilseed Rape plant response rating (oilseed rape; [8]) | Plant response rating, Oilseed Rape (oilseed rape; 13 to 15 days) | Oilseed Rape plant response rating (oilseed rape; [9]) | Corn plant response rating (0 to 100 scale) (corn [2]) | Corn plant response rating (corn [2]) | Corn plant response rating (corn [3]; [7]) | Corn plant response rating (corn [3]; [8]) | Plant response rating, Corn (corn [3]; 13 to 15 days) | Corn plant response rating (corn [3]; [9]) | Plant response rating, Ducksalad (ducksalad) | Plant response rating, Sedge, Umbrella (sedge, umbrella) | Foxtail, Giant plant response rating (0 to 100 scale) (foxtail, giant [4]) | Foxtail, Giant plant response rating (foxtail, giant [4]) | also measured
CCCc1cc(C(=O)NOCC)nn1Cc1ccnc(C(F)(F)F)c1 [Compound 185] | 70 | 100 | 0 | 60 | 85 | 90 | 70 | 80 | 85 | 100 | 10 | 30 | 5 | 25 | 45 | 75 | 50 | 80 | 100 | 100 | Foxtail, Giant plant response rating (foxtail, giant [5]; [7]): 60; Foxtail, Giant plant response rating (foxtail, giant [5]; [8]): 90; Plant response rating, Foxtail, Giant (foxtail, giant [5]; 13 to 15 days): 98; Foxtail, Giant plant response rating (foxtail, giant [5]; [9]): 100; Morningglory plant response rating (0 to 100 scale) (morningglory): 40; Morningglory plant response rating (morningglory): 90; Wheat plant response rating (wheat [6]; [10]): 0; Wheat plant response rating (wheat [6]; [11]): 80; Nutsedge, Yellow plant response rating (nutsedge, yellow; [7]): 5; Nutsedge, Yellow plant response rating (nutsedge, yellow; [8]): 40; Plant response rating, Nutsedge, Yellow (nutsedge, yellow; 13 to 15 days): 75; Nutsedge, Yellow plant response rating (nutsedge, yellow; [9]): 75; Crabgrass, Large plant response rating (crabgrass, large; [12]): 90; Crabgrass, Large plant response rating (crabgrass, large; [13]): 80; Pigweed plant response rating (pigweed; [10]): 60; Pigweed plant response rating (pigweed; [11]): 100; Galium plant response rating (galium; [7]): 80; Galium plant response rating (galium; [8]): 100; Plant response rating, Galium (galium; 13 to 15 days): 95; Galium plant response rating (galium; [9]): 100
CCOc1cc(C(=O)NC(C)C)nn1Cc1ccnc(C(F)(F)F)c1 [Compound 188] | 100 | 100 | 85 | 90 | 90 | 90 | 100 | 100 | 100 | 100 | 100 | 100 | 55 | 85 | 98 | 98 | 90 | 90 | 100 | 100 | Foxtail, Giant plant response rating (foxtail, giant [5]; [7]): 100; Foxtail, Giant plant response rating (foxtail, giant [5]; [8]): 100; Plant response rating, Foxtail, Giant (foxtail, giant [5]; 13 to 15 days): 100; Foxtail, Giant plant response rating (foxtail, giant [5]; [9]): 100; Morningglory plant response rating (0 to 100 scale) (morningglory): 100; Morningglory plant response rating (morningglory): 100; Wheat plant response rating (wheat [6]; [10]): 80; Wheat plant response rating (wheat [6]; [11]): 90; Nutsedge, Yellow plant response rating (nutsedge, yellow; [7]): 30; Nutsedge, Yellow plant response rating (nutsedge, yellow; [8]): 65; Plant response rating, Nutsedge, Yellow (nutsedge, yellow; 13 to 15 days): 95; Nutsedge, Yellow plant response rating (nutsedge, yellow; [9]): 98; Crabgrass, Large plant response rating (crabgrass, large; [12]): 90; Crabgrass, Large plant response rating (crabgrass, large; [13]): 90; Pigweed plant response rating (pigweed; [10]): 100; Pigweed plant response rating (pigweed; [11]): 100; Galium plant response rating (galium; [7]): 98; Galium plant response rating (galium; [8]): 100; Plant response rating, Galium (galium; 13 to 15 days): 100; Galium plant response rating (galium; [9]): 100
CCOc1cc(C(=O)NC2CC2)nn1Cc1ccnc(C(F)(F)F)c1 [Compound 189] | 100 | 100 | 40 | 80 | 90 | 90 | 98 | 95 | 95 | 95 | 80 | 100 | 5 | 40 | 85 | 98 | 85 | 90 | 100 | 100 | Foxtail, Giant plant response rating (foxtail, giant [5]; [7]): 100; Foxtail, Giant plant response rating (foxtail, giant [5]; [8]): 100; Plant response rating, Foxtail, Giant (foxtail, giant [5]; 13 to 15 days): 100; Foxtail, Giant plant response rating (foxtail, giant [5]; [9]): 100; Morningglory plant response rating (0 to 100 scale) (morningglory): 100; Morningglory plant response rating (morningglory): 100; Wheat plant response rating (wheat [6]; [10]): 80; Wheat plant response rating (wheat [6]; [11]): 90; Nutsedge, Yellow plant response rating (nutsedge, yellow; [7]): 25; Nutsedge, Yellow plant response rating (nutsedge, yellow; [8]): 80; Plant response rating, Nutsedge, Yellow (nutsedge, yellow; 13 to 15 days): 85; Nutsedge, Yellow plant response rating (nutsedge, yellow; [9]): 95; Crabgrass, Large plant response rating (crabgrass, large; [12]): 90; Crabgrass, Large plant response rating (crabgrass, large; [13]): 90; Pigweed plant response rating (pigweed; [10]): 80; Pigweed plant response rating (pigweed; [11]): 100; Galium plant response rating (galium; [7]): 90; Galium plant response rating (galium; [8]): 95; Plant response rating, Galium (galium; 13 to 15 days): 100; Galium plant response rating (galium; [9]): 100
